# Earlier results, collected in PMC7765247 (Bioorganic & medicinal chemistry letters, 2020).
# System: PC-3 cells
# Conditions: anoxia (< 10 ppm oxygen in gas phase); ref Patterson el. al.
smiles,measurement,value
"CS(=O)(=O)OCCN(CCBr)c1c(C(=O)NCCO)cc([N+](=O)[O-])cc1[N+](=O)[O-] [Compound 16, PR-104A]",hypoxia-selectivity ratio in PC-3 cells,approximately 15
